Measured values reported in patent publication US20110306554A1, “PEPTIDE CAPABLE OF BINDING TO IMMUNOGLOBULIN” (priority 2009, published 2011).
“Also recorded” adds a separate entry of the source.

Tests used:
[1] = tested on: Monoclonal antibody cocktail-induced arthritis mice; experiment: Arthritis suppressing effects on arthritis-induced mice, Part 2; type: in vivo; conditions: 10 mg/kg intraperitoneal twice a day, 14 consecutive days from day 0
Experimental: Monoclonal antibody cocktail-induced arthritis mice were used to examine arthritis suppressing effects of peptides which are indicated as R1, R2, and R5 in Example 2. Arthritis was caused by intravenous administration of 2 mg/mouse of an arthritis-inducing monoclonal antibody cocktail and three days later, intraperitoneal administration of 50 μg/mouse of LPS. The peptides were administered at a dose of 10 mg/kg twice a day for a period of 14 consecutive days from the day of administration of the arthritis-inducing monoclonal antibody cocktail (day 0), and arthritis suppressing effect was examined in terms of clinical score. Experiments were carried out in a similar way to those in the section (1) in Example 3.
The required amount was calculated for each peptide, based on the animal weight. Each peptide solution was prepared to make a concentration of 1 mg/ml in a 0.5% methyl cellulose solution, and the prepared peptide solution was cold stored.
Measurement of body weight of animals was made on days 0, 3, 6, 9, 12, and 14 during the study period, with day 0 being the day of administration of the arthritis-inducing monoclonal antibody cocktail. Observation of general condition was made on a daily basis.
Mice were weighed on the day prior to start of administration and randomly assigned to groups using a grouping software, so that the average body weight values of the groups were approximately equal. To twenty 7-week-old mice, the arthritis-inducing monoclonal antibody cocktail was intravenously administered at a dose of 2 mg/mouse on day 0, and LPS was intraperitoneally administered at a dose of 50 μg/mouse on day 3.
Each peptide solution was given via intraperitoneal administration twice a day, morning and afternoon, from day 0. As a control, a 0.5% solution of methyl cellulose was intraperitoneally administered twice a day from day 0. A needle (26G; Terumo) and a syringe (1.0-ml capacity; Terumo) were used for administration. […]
Results of examinations were expressed by mean value±standard error and analyzed using EXSAS (Version 7.1.6, Arm Systex Co., Ltd.). […]

[2] = tested on: type III allergic (Arthus) reaction-induced rats; experiment: Immune-complex disease suppression in type III allergic (Arthus) reaction-induced rats, Part 1; type: in vivo; conditions: intraperitoneal administration, 10 or 100 mg/kg
Experimental: Using sixty-four 7-week-old male Slc:Wistar rats, examinations were made on peptides R1, R2, and R5, in two series of examinations, each using a different method of administration (intraperitoneal administration and tail vein administration). Acclimation was carried out by giving normal solid chow CRF-1 for a period of 9 days or longer. The back of the animals was shaved on the day prior to administration, and a mixed solution of OVA and Evans blue dye was administered into the tail vein on the day of administration. Each peptide solution was administered intraperitoneally or into the tail vein 30 minutes or 50 minutes after the administration of the mixed solution of OVA and Evans blue dye, respectively. For intracutaneous administration of an anti-OVA solution, […] was intracutaneously administered in the back of animals at a dose of 0.1 ml/site 30 minutes or 10 minutes after the administration of the tested substance in the case of intraperitoneal or intravenous administration, respectively, so as to generate a local Arthus reaction. After the reaction was allowed to be generated for 4 hours, the animals were euthanized, the blood was removed thoroughly, and then the dorsal skin was exfoliated. The Arthus reaction sites on the exfoliated skin were punched out, and the Evans blue dye was extracted from the punched skin overnight. The amount of dye leakage was quantified by measuring absorbance for the Evans blue dye with a spectrophotometer and using a calibration curve (see, H. Okamoto, Y. Iwahisa, and M. Terasawa, “Suppression of the Arthus reaction by Y-24180, a potent and specific antagonist of platelet-activating factor”, Agents Actions, 35:149-158 (1992), for experimental procedures used in Example 4).
A predetermined amount of each peptide (peptides R1, R2, and R5) was dissolved in physiological saline to make a 20 mg/ml solution. A 2 mg/ml solution was prepared by diluting the 20 mg/ml solution 10-fold with physiological saline. A 5 mg/ml solution was prepared by dissolving each peptide in a predetermined amount in physiological saline to make a prepared solution.
A mixed solution of OVA and Evans blue dye was administered into the tail vein at a dose of 2 ml/kg. Each peptide solution was administered intraperitoneally or into the tail vein 30 minutes or 50 minutes after the administration of the mixed solution of OVA and Evans blue dye, respectively. For intracutaneous administration of an anti-OVA solution, […] was intracutaneously administered in the back of animals at a dose of 0.1 mL/site 30 minutes or 10 minutes after the administration of the tested substance in the case of intraperitoneal or intravenous administration, respectively, so as to generate a local Arthus reaction. Intracutaneous administration was conducted at 2 sites for PBS and at 2 sites for the anti-OVA solution per animal. After the reaction was allowed to be generated for 4 hours, the animals were euthanized by decapitation under ether anesthesia, the blood was removed thoroughly, and then the dorsal skin was exfoliated. The Arthus reaction sites on the exfoliated skin were punched out and subjected to dye extraction.
Several cuttings were made in the skin strips that were punched out with a punch. […] The amount of dye leakage was calculated from a calibration curve of known amounts of the dye.
The mean value (mean)±standard deviation (SD) for each group was calculated with body-weight measurements and amounts of dye leakage. […]

In the case of “STGKFTCKVPGLYYF (Immunoglobulin binding peptide) [R5]”, the “arthritis suppressing effect (clinical score)” value [1] is reported as “Arthritis suppressing effects were observed; also recorded: arthritis was suppressed” and the “effect of immune-complex disease suppression (dye leakage)” value [2] is reported as “clear and satisfactory effects of immune-complex disease suppression; also recorded: suppressed”.
